Where “and” joins values, the source holds several entries; their conditions need not be identical. Equal entries are not always repeated.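 Cultured in 96-well plates, cells were exposed to test compound for 48 hours across five concentrations. At the GI50, growth is halved.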 Calls of active or inactive are those of the source. Cut-off read from the data, not from the text of the source: active = GI50 up to about 1.1 µM and inactive = higher.
Tests used:
Assay in all cases: NCI-60 cell line screen, 48 h
[1] = system: CAKI-1
[2] = system: COLO 205
[3] = system: HCC 2998
[4] = system: HCT-116
[5] = system: HL-60
[6] = system: Hs-578T
[7] = system: K562
[8] = system: MDA-MB-435
[9] = system: MOLT-4
[10] = system: NCI-H522
[11] = system: OVCAR-4
[12] = system: SF-295
[13] = system: SF-539
[14] = system: SK-MEL-2
[15] = system: SK-OV-3
[16] = system: SNB-19
[17] = system: SNB-75
[18] = system: TK-10
[19] = system: DMS-114
[20] = system: DMS-273

SMILES	GI50 [1]	GI50 [2]	GI50 [3]	GI50 [4]	GI50 [5]	GI50 [6]	GI50 [7]	GI50 [8]	GI50 [9]	GI50 [10]	GI50 [11]	GI50 [12]	GI50 [13]	GI50 [14]	GI50 [15]	GI50 [16]	GI50 [17]	GI50 [18]	GI50 [19]	GI50 [20]
C[N+](C)(C)CC1CCCc2ccccc2C1=O (stereo not drawn)	4.71 µM (inactive)	22 µM (inactive)	20.6 µM (inactive)	1.87 µM (inactive)	1.89 µM (inactive)	37.8 µM (inactive)	2.49 µM (inactive)	5.89 µM (inactive)	2.48 µM (inactive)	1.49 µM (inactive)	6.92 µM (inactive)	> 40.5 µM (inactive)	17.4 µM (inactive)	10.5 µM (inactive)	20.3 µM (inactive)	29 µM (inactive)	19.7 µM (inactive)	21 µM (inactive)		
Cc1cc(NS(=O)(=O)c2ccc(NC(=O)c3cccc4c(=O)c5ccccc5[nH]c34)cc2)no1	65.8 µM (inactive)	50.5 µM (inactive)	36.5 µM (inactive)	36.9 µM (inactive)	30.9 µM (inactive)		36.1 µM (inactive)		39.4 µM (inactive)	14.2 µM (inactive)	51.6 µM (inactive)	> 10 µM (inactive)	28.9 µM (inactive)	34.7 µM (inactive)	14.9 µM (inactive)	36.2 µM (inactive)	23.1 µM (inactive)	40.2 µM (inactive)	46 µM (inactive)	
O=C1NN=CN2C(=O)CCC12 (stereo not drawn)	> 100 µM (inactive)	> 100 µM (inactive)	> 100 µM (inactive)	> 100 µM (inactive)	> 100 µM (inactive)		> 100 µM (inactive)		> 100 µM (inactive)		> 100 µM (inactive)	> 100 µM (inactive)	> 100 µM (inactive)	> 100 µM (inactive)	> 100 µM (inactive)	> 100 µM (inactive)	> 100 µM (inactive)	> 100 µM (inactive)	> 100 µM (inactive)	> 100 µM (inactive)
CCN(CC)Cc1cc(/N=N\c2c(O)ccc3c(/N=N\c4ccc(O)c(CN(CC)CC)c4)c(O)ccc23)ccc1O	2.1 µM (inactive)	1.61 µM (inactive)	1.71 µM (inactive)	1.94 µM (inactive)	1.8 µM (inactive)	3.73 µM (inactive)	2.21 µM (inactive)	3.65 µM (inactive)	1.13 µM (inactive)	2.31 µM (inactive)	1.77 µM (inactive)	5.01 µM (inactive)	2.73 µM (inactive)	12.6 µM (inactive)	2.77 µM (inactive)	3.86 µM (inactive)	6.28 µM (inactive)	6.89 µM (inactive)		
Nc1nc(S)nc(C(=O)Nc2ccc(Cl)c(Cl)c2)c1-c1ccc(Cl)cc1	> 100 µM (inactive)	> 100 µM (inactive)	> 100 µM (inactive)	45.4 µM (inactive)	> 100 µM (inactive)		90.8 µM (inactive)		14.7 µM (inactive)	> 100 µM (inactive)	> 100 µM (inactive)	> 100 µM (inactive)	> 100 µM (inactive)		> 100 µM (inactive)	> 100 µM (inactive)	> 100 µM (inactive)	> 100 µM (inactive)	> 100 µM (inactive)	
O=C(CN1CCN(C(=O)OCc2ccccc2)CCN(CC(=O)N2CCCCC2)CCN(C(=O)OCc2ccccc2)CC1)N1CCCCC1	5.04 µM (inactive)	11.9 µM (inactive)	11.2 µM (inactive)	4.88 µM (inactive)	10.6 µM (inactive)	14.3 µM (inactive)	5.4 µM (inactive)	16.1 µM (inactive)	7.41 µM (inactive)	5.52 µM (inactive)	4.8 µM (inactive)	18.7 µM (inactive)	14.6 µM (inactive)	19.5 µM (inactive)	27.7 µM (inactive)	19.7 µM (inactive)	4.22 µM (inactive)	11.5 µM (inactive)		
O=C1[C@H]2ON(c3ccccc3)C(c3ccco3)[C@H]2C(=O)N1c1ccc(Cc2ccc(N3C(=O)[C@@H]4ON(c5ccccc5)C(c5ccco5)[C@@H]4C3=O)cc2)cc1 (stereo partly drawn)	> 100 µM (inactive)	78.2 µM (inactive)	> 100 µM (inactive)		> 100 µM (inactive)		> 100 µM (inactive)		> 100 µM (inactive)		> 100 µM (inactive)	> 100 µM (inactive)	> 100 µM (inactive)	> 100 µM (inactive)	> 100 µM (inactive)		> 100 µM (inactive)		> 100 µM (inactive)	78.3 µM (inactive)
CCOc1ccc(/C=N\N2C(=O)c3ccccc3C2=O)cc1	> 100 µM (inactive)		> 100 µM (inactive)	> 100 µM (inactive)	> 100 µM (inactive)		> 100 µM (inactive)		> 100 µM (inactive)		> 100 µM (inactive)	> 100 µM (inactive)	> 100 µM (inactive)	> 100 µM (inactive)		> 100 µM (inactive)	> 100 µM (inactive)	> 100 µM (inactive)	> 100 µM (inactive)	> 100 µM (inactive)
COc1cc(C2S/C(=C/c3ccccc3)C(=O)N2c2cc(Cl)c(Cl)cc2Cl)cc(OC)c1OC (stereo not drawn)	> 40.8 µM (inactive)	53.6 µM (inactive)	39.1 µM (inactive)	23.5 µM (inactive)	20.4 µM (inactive)	9.27 µM (inactive)	29 µM (inactive)	34 µM (inactive)	25.2 µM (inactive)	16.9 µM (inactive)	52.6 µM (inactive)	49.3 µM (inactive)	25.6 µM (inactive)	41.3 µM (inactive)	> 70.5 µM (inactive)	> 63.1 µM (inactive)	2.56 µM (inactive)	> 69.3 µM (inactive)		
CC(=O)Nc1ccc(S(=O)(=O)N/N=C/c2cc(I)cc([N+](=O)[O-])c2O)cc1	81.5 µM (inactive)	> 100 µM (inactive)	> 100 µM (inactive)		31.5 µM (inactive)		57.3 µM (inactive)		32.7 µM (inactive)		30.3 µM (inactive)	> 100 µM (inactive)		41.9 µM (inactive)	85.3 µM (inactive)	55.3 µM (inactive)	25.6 µM (inactive)	> 100 µM (inactive)	50.8 µM (inactive)	62.4 µM (inactive)
COc1cc(O)c(C(=O)/C=C/c2ccc(OC)c(OCc3ccccc3)c2)c(OC)c1	> 100 µM (inactive)	0.0446 µM (active)	46.9 µM (inactive)	4.55 µM (inactive)	8.67 µM (inactive)		5.93 µM (inactive)		5.46 µM (inactive)	7.46 µM (inactive)	> 100 µM (inactive)	0.301 µM (active)	> 100 µM (inactive)	37.8 µM (inactive)	> 100 µM (inactive)	> 100 µM (inactive)	22.1 µM (inactive)	> 100 µM (inactive)		0.175 µM (active)
NC(=O)NC(=O)CCC(NS(=O)(=O)c1ccccc1)C(=O)NC(N)=O (stereo not drawn)	> 100 µM (inactive)	> 100 µM (inactive)	> 100 µM (inactive)	> 100 µM (inactive)	> 100 µM (inactive)	> 100 µM (inactive)	> 100 µM (inactive)	> 100 µM (inactive)	> 100 µM (inactive)	> 100 µM (inactive)	> 100 µM (inactive)	> 100 µM (inactive)	> 100 µM (inactive)	> 100 µM (inactive)	> 100 µM (inactive)	> 100 µM (inactive)	> 100 µM (inactive)	> 100 µM (inactive)		
Cc1ccc(NC(=O)c2cccc(OP(=O)(O)Nc3ccc(C)cc3)c2)cc1	> 100 µM (inactive)	> 100 µM (inactive)	> 100 µM (inactive)	> 100 µM (inactive)	> 100 µM (inactive)	> 100 µM (inactive)	> 100 µM (inactive)	> 100 µM (inactive)	64.6 µM (inactive)	18.7 µM (inactive)	72.8 µM (inactive)	> 100 µM (inactive)	> 100 µM (inactive)	> 100 µM (inactive)	> 100 µM (inactive)	> 100 µM (inactive)	20.2 µM (inactive)	> 100 µM (inactive)		
O=S(=O)(O)c1cc(/N=N/c2c(O)ccc3ccccc23)c2c(S(=O)(=O)O)cccc2c1	> 100 µM (inactive)	> 100 µM (inactive)	> 100 µM (inactive)	> 100 µM (inactive)	> 100 µM (inactive)	> 100 µM (inactive)	> 100 µM (inactive)	> 100 µM (inactive)	> 100 µM (inactive)	> 100 µM (inactive)	> 100 µM (inactive)	> 100 µM (inactive)	> 100 µM (inactive)	> 100 µM (inactive)	> 100 µM (inactive)	> 100 µM (inactive)	< 0.01 µM (active)	> 100 µM (inactive)		
Nc1ccc2c(c1)Nc1c3ccccc3nc3cccc-2c13	1.54 µM (inactive)	1.34 µM (inactive)	1.2 µM (inactive)	1.48 µM (inactive)	3.66 µM (inactive)	2.03 µM (inactive)	0.416 µM (active)	1.81 µM (inactive)	0.391 µM (active)	1.55 µM (inactive)	1.72 µM (inactive)	1.29 µM (inactive)	1.66 µM (inactive)	1.73 µM (inactive)	1.61 µM (inactive)	1.64 µM (inactive)	1.4 µM (inactive)	2.13 µM (inactive)		
COc1cc(-c2oc3c(OC)c(OC)cc(O)c3c(=O)c2OC)ccc1O [TERNATIN]	7 µM (inactive)	> 100 µM (inactive)		5.04 µM (inactive) and 8.69 µM (inactive)	1.24 µM (inactive)	3.93 µM (inactive)	27.5 µM (inactive)	10.6 µM (inactive)	12.7 µM (inactive)				6.18 µM (inactive) and 7.5 µM (inactive)		1.17 µM (inactive) and 2.19 µM (inactive)	41.6 µM (inactive) and 49.8 µM (inactive)		4.84 µM (inactive) and 8.69 µM (inactive)	> 100 µM (inactive)	

From ChEMBL document CHEMBL1201862, “PubChem BioAssay data set” (2004)
